According to patent publication US9987278B2, “Pharmaceutical composition for treating FLT3 mutation-positive cancer, mutant FLT3 inhibitor and uses thereof” (FUJIFILM Corporation, priority 2014, dated 2018):

Tests used:
Assay type in all cases: cell-based
[1] = test system: 32D FLT3 D835H cells; experiment: Cell growth assay, 32D FLT3 D835H; details: Mus musculus, 48 h, FLT3 D835H, 2 days with compound, read-out: GI50 value for growth of FLT3 protein-expressing 32D cells
Experimental: (§1) After the virus-containing culture supernatant was added to the mouse hematopoietic precursor cell line 32D cells in the presence of 10 μg/mL polybrene, and the cells were cultured in the presence of 0.5 ng/mL mouse IL-3.
(§2) Individual cells were seeded onto a 96-well plate (Becton, Dickinson and Company) at a density of 1000 to 10000 cells/well, and the cell culture was started at 37° C. in the presence of 5% CO2. On the next day, the compound diluted in 3-fold common ratio was added to each well, followed by further culturing for 2 days. Then, in order to evaluate the cell viability, a CellTiter 96 AQueous One SolutionReagent was added to each well according to the Promega Corporation's protocol, followed by culturing for 1 hour. […] In a case where the absorbance is insufficient, the absorbance was measured after performing the culturing for another 1 to 2 hours.

[2] = test system: 32D FLT3 D835Ins cells; experiment: Cell growth assay, 32D FLT3 D835Ins; details: Mus musculus, 48 h, FLT3 D835Ins (I836 to leucine and aspartic acid), 2 days with compound, read-out: GI50 value for growth of FLT3 protein-expressing 32D cells
Experimental: as §1, §2

[3] = test system: FLT3 ITD.Y842H-expressing 32D cells; experiment: Cell growth assay, FLT3 ITD.Y842H-expressing 32D cells; details: Mus musculus, read-out: GI50 value for growth of FLT3 protein-expressing 32D cells
Text: (§3) The ITD.Y842C-mutant or ITD.Y842H-mutant FLT3-expressing vector was constructed by introducing Y842C and Y842H mutations into the C-terminal FLAG sequence-added ITD-mutant FLT3 gene inserted into a pGEM-T vector as a template, using the primers shown below and according to the protocol of a QuikChange Site-Directed Mutagenesis Kit (Stratagene Corporation), and then inserting the whole length of the ITD.Y842-mutant FLT3 gene into a pMXs-IP retroviral vector. Introduced mutations were confirmed by sequence analysis.
(§4) The mutant FLT3 pMXs-IP retroviral vectors prepared according to the above-mentioned procedure were introduced into PLAT-E cells by using FuGENE6, followed by culturing for 2 days, and the culture supernatant containing viruses was collected. […]
(§5) Individual cells were seeded onto a 96-well plate (Becton, Dickinson and Company) at a density of 1000 to 10000 cells/well, and the cell culture was started at 37° C. in the presence of 5% CO2. […] Thereafter, the absorbance (OD=492 nm) was measured using an MPR-A4i II microplate reader (Tosoh Corporation). In a case where the absorbance is insufficient, the absorbance was measured after performing the culturing for another 1 to 2 hours. […]

[4] = test system: 32D FLT3 D835N cells; experiment: Cell growth assay, 32D FLT3 D835N; details: Mus musculus, 48 h, FLT3 D835N, 2 days with compound, read-out: GI50 value for growth of FLT3 protein-expressing 32D cells
Experimental: as §1, §2

[5] = test system: 32D FLT3 D835V cells; experiment: Cell growth assay, 32D FLT3 D835V; details: Mus musculus, 48 h, FLT3 D835V, 2 days with compound, read-out: GI50 value for growth of FLT3 protein-expressing 32D cells
Experimental: as §1, §2

[6] = test system: 32D FLT3 Y842H cells; experiment: Cell growth assay, 32D FLT3 Y842H; details: Mus musculus, 48 h, FLT3 Y842H, 2 days with compound, read-out: GI50 value for growth of FLT3 protein-expressing 32D cells
Experimental: as §1, §2

[7] = test system: FLT3 ITD-expressing 32D cells; experiment: Cell growth assay, FLT3 ITD-expressing 32D cells; details: Mus musculus, read-out: GI50 value for growth of FLT3 protein-expressing 32D cells
Text: The ITD-mutant FLT3-expressing vector was constructed by introducing an ITD-mutant FLT3 gene (clone Mt2) described in Kiyoi H, et al., Leukemia, Vol. 12, pp. 1333 to 1337, 1998 into a pMXs-IP retroviral vector as a sequence having a FLAG sequence added to the C-terminal thereof.
as §4, with “collected. After the virus-containing culture supernatant was added to the mouse hematopoietic precursor cell line 32D cells in the presence of 10 μg/mL polybrene, and the cells were cultured in the presence of 0.5 ng/mL mouse IL-3.” for “collected.”
as §5

[8] = test system: 32D FLT3 Y842C cells; experiment: Cell growth assay, 32D FLT3 Y842C; details: Mus musculus, 48 h, FLT3 Y842C, 2 days with compound, read-out: GI50 value for growth of FLT3 protein-expressing 32D cells
Experimental: as §1, §2

[9] = test system: 32D FLT3 D835E cells; experiment: Cell growth assay, 32D FLT3 D835E; details: Mus musculus, 48 h, FLT3 D835E, 2 days with compound, read-out: GI50 value for growth of FLT3 protein-expressing 32D cells
Experimental: as §1, §2

[10] = test system: 32D FLT3/FL cells; experiment: Cell growth assay, FLT3/FLT3 ligand-coexpressing 32D cell line; details: Mus musculus, 48 h, FLT3/FL, 2 days with compound, read-out: GI50 value for growth of FLT3 protein-expressing 32D cells
Experimental: RPMI1640 and DMEM were purchased from Life Technologies or SIGMA. The 32D cells were obtained from RIKEN Bioresource Center, and cultured in the presence of 5% CO2 at 37° C. using an RPMI1640 medium containing 1 ng/mL mouse IL-3, 10% fetal bovine serum (FBS), 100 U/mL penicillin and […] streptomycin. The PLAT-E cells were kindly provided by Dr. Kitamura Toshio of Tokyo University and cultured in a DMEM medium containing 1 μg/mL puromycin, 10 μg/mL blasticidin S, 10% FBS, 100 U/mL penicillin and […] streptomycin. […] A pGEM-T vector, FuGENE6 and CellTiter 96 AQueous One Solution Cell Proliferation Assay were purchased from Promega Corporation.
as §2

[11] = test system: FLT3 ITD.Y842C-expressing 32D cells; experiment: Cell growth assay, FLT3 ITD.Y842C-expressing 32D cells; details: Mus musculus, read-out: GI50 value for growth of FLT3 protein-expressing 32D cells
Text: as §3, §4, §5

[12] = test system: 32D FLT3 D835Y cells; experiment: Cell growth assay, 32D FLT3 D835Y; details: Mus musculus, 48 h, FLT3 D835Y, 2 days with compound, read-out: GI50 value for growth of FLT3 protein-expressing 32D cells
Experimental: as §1, §2

[13] = test system: FLT3 ITD.D835Y-expressing 32D cells; experiment: Cell growth assay, FLT3 ITD.D835Y-expressing 32D cells; details: Mus musculus, read-out: GI50 value for growth of FLT3 protein-expressing 32D cells
Text: The ITD.D835Y-mutant FLT3-expressing vector was constructed by replacing a sequence containing aspartic acid 835 cleaved by Sphl, in the C-terminal FLAG sequence-added ITD-mutant FLT3 gene inserted into a pGEM-T vector, with the corresponding sequence of the C-terminal FLAG sequence-added D835Y-mutant FLT3 gene inserted into a pGEM-T vector, and then inserting the whole length of C-terminal FLAG sequence-added ITD.D835Y-mutant FLT3 sequence into a pMXs-IP retroviral vector.
as §4, with “collected. After the virus-containing culture supernatant was added to the mouse hematopoietic precursor cell line 32D cells in the presence of 10 μg/mL polybrene, and the cells were cultured in the presence of 0.5 ng/mL mouse IL-3.” for “collected.”
as §5

Measured: GI50

CCCNc1nc(Nc2ccc(C#N)cc2)ncc1C#CCCCNC(=O)[C@H](C)N(C)C(=O)/C=C/CN(C)C [Compound 38]
< 1 nM: [3] | [5] | [12]
1 to 10 nM: all other assays above
